From publication PMC5974403, “The novel histone de acetylase 6 inhibitor, MPT0G211, ameliorates tau phosphorylation and cognitive deficits in an Alzheimer’s disease model” (Cell Death & Disease, 2018)
Entries after “also recorded” stand apart in the source; their conditions may differ.

Assays:
Neuro-2a cells [1] = experiment: MTT cell viability, Neuro-2a; type: cell-based, mouse; conditions: 24 h, 0.01–1 μM
Procedure: (§1) Cell viabilities were determined by MTT assay. The results represent the mean ± SEM of three independent experiments; *p < 0.05, **p < 0.01 and ***p < 0.001 compared with controls TEXT PRINTED IN THE PICTURE: (A) no label printed: M.W. 293.32

SH-SY5Y cells [2] = experiment: Immunoprecipitation/immunoblot of HDAC6, acetyl-lysine, ubiquitin in transfected SH-SY5Y cells; type: cell-based, human; conditions: 24 h
Procedure: Fig. 4 MPT0G211 increased the ubiquitination of p-tau and degradation by proteasome. a, b SH-SY5Y and Neuro-2a cells were transfected for 24 h with pCAX APP 695 and pRK5-EGFP-Tau P301L and incubated with MPT0G211 or ACY-1215 (0.1 μM) for another 24 h, after which the cell lysates were immunoprecipitated with antibodies against HDAC6, acetyl-lysine (a) or ubiquitin (b) and were subjected to immunoblotting. c Cells were transfected with pCAX APP 695 and pRK5-EGFP-Tau P301L for 24 h and were then incubated with MPT0G211 (0.01–1 μM) for another 24 h. Immunoblots reveal polyubiquitin complexes. d pCAX APP 695 or pRK5-EGFP-Tau P301L were used to transfect the cells for 24 h, incubated with or without MG132 (1 μM) for 30 min, and were then treated with MPT0G211 or ACY-1215 (0.1 μM) for another 24 h. Cell lysates were prepared for western blot analysis of the indicated proteins
(§2) Cells (1 × 10^6) were incubated for 10 min at 4 °C in lysis buffer (20 mM HEPES, pH 7.4, 2 mM EGTA, 50 mM β-glycerophosphate, 0.1% Triton X-100, 10% glycerol, 1 mM dithiothreitol, 1 μg/mL leupeptin, 5 μg/mL aprotinin, 1 mM phenylmethylsulfonyl fluoride, and 1 mM sodium orthovanadate), scraped from the plate, incubated on ice for 10 min, and centrifuged at 17,000 × g for 30 min at 4 °C. Protein samples (30 μg) were electrophoresed through sodium dodecyl sulfate-polyacrylamide gels (SDS-PAGE) and transferred onto a nitrocellulose membrane, which was then blocked by incubation for 30 min at room temperature with 5% fat-free milk in PBS. Immunoblotting was performed by overnight incubation at 4 °C with primary antibodies in PBS, followed by incubation for 1 h at room temperature with HRP-conjugated secondary antibodies. Bound antibodies were measured using ECL reagent (T-Pro Biotechnology, New Taipei City, Taiwan), and the membrane was placed on a photographic film. Cell lysates (30 μg) were incubated with antibodies (1 μg each) and protein A/G agarose beads overnight at 4 °C. The precipitated beads were washed three times with 1 mL of ice-cold cell lysis buffer, and bound immune complexes were separated using 8% SDS-PAGE, followed by immunoblotting using the indicated primary antibody.

3×Tg-AD mice = experiment: Morris water maze in 3×Tg-AD mice; type: in vivo, mouse; conditions: 50 mg/kg oral daily for 3 months
Procedure: Red arrowheads indicate phosphorylated-tau proteins. Scale bar = 25 μm. Data represent the mean ± SEM. *p < 0.05, **p < 0.01, and ***p < 0.001 compared with the basal or control group; ^#p < 0.05, ^##p < 0.01, and ^###p < 0.001 compared with the vehicle-treated group
Six-month-old female B6;129-Psen1^tm1Mpm Tg(APPSwe,tauP301L)1Lfa/Mmjax (3xTg-AD) mice and control B6129SF2/J mice were obtained from the Jackson Laboratory (Bar Harbor, ME, USA), orally administered MPT0G211 (50 mg/kg) or memantine (30 mg/kg, dissolved in water) once daily for 3 months, and then subjected to Morris water maze. The assay that using 3xTg-AD mice was entrusted to carry out by Development Center for Biotechnology (New Taipei City, Taiwan).
The water maze was constructed as a white circular pool filled with water, and the water temperature was maintained at 23–27 °C. A white platform was established and submerged 5 cm below the surface of the water and styrofoam beads were added to make the platform invisible. Animals were trained by permitting them to stay for 10 s upon reaching the platform. […] Training was performed twice daily and 4 days during 1 week. Test trials were repeated twice with a 20 min interval for each animal. Scopolamine (1 mg/kg) was injected intraperitoneally 90 min before the test trial to induce AD-like features, except for the control group.

Elevated plus maze = experiment: Elevated plus maze; design: species or system rat; conditions: AD in vivo models; stated in introduction only
Procedure: The plus maze consisted of two open and two closed arms, connected by a central platform. Animals were individually placed at the end of either of the open arms facing away from the central platform. The time for each rat to move from the open arm to either of the closed arms was recorded. […] These experiments were performed in accordance with relevant ethics guidelines and regulations, which were reviewed and approved by the Animal Use and Management Committee of the College of Medicine, National Taiwan University (IACUC number: 20130361).

SH-SY5Y cells [3] = experiment: Aβ1–40-induced tau phosphorylation, western blot; type: cell-based, human; conditions: Aβ1–40 10 μM 24 h, then 0.1 μM for 24 h
Procedure: (§3) Cell lysates were prepared for western blot analysis of the indicated proteins. Results are presented as the mean ± SEM. *p < 0.05, **p < 0.01, and ***p < 0.001 compared with the control group; ^#p < 0.05, ^##p < 0.01, ^###p < 0.001 compared with the indicated groups
as §2, with “The precipitated beads were washed three times with 1 mL of ice-cold cell lysis buffer, and bound immune complexes were separated using 8% SDS-PAGE, followed by immunoblotting using the indicated primary antibody.” left out

SH-SY5Y cells [4] = experiment: MTT cell viability, SH-SY5Y; type: cell-based, human; conditions: 24 h, 0.01–1 μM
Procedure: as §1

Neuro-2a cells [5] = experiment: Western blot of tau phosphorylation and kinases in Neuro-2a cells transfected with pCAX APP 695 and pRK5-EGFP-Tau P301L; type: cell-based, mouse; conditions: 0.1 μM, 24 h
Procedure: Images represented magnification at ×100. b Cells were transfected with pCAX APP 695 for 24 h, harvested, and cell lysates were subjected to Western blotting. c, d SH-SY5Y and Neuro-2a cells were transfected with pCAX APP 695 and/or pRK5-EGFP-Tau P301L for 24 h. Cell lysates were prepared for western blot analysis of the indicated proteins. e, f Cells were transfected with pCAX APP 695 and pRK5-EGFP-Tau P301L for 24 h and were then incubated with or without MPT0G211 or ACY-1215 (0.1 μM) for another 24 h. Cell lysates were subjected to western blot analysis using the indicated antibodies. Results are presented as the mean ± SEM from three independent experiments. **p < 0.01, ***p < 0.001 compared with the control group; ^#p < 0.05, ^##p < 0.01 compared with the indicated groups
as §3
Cells were seeded 1 day before transfection. The plasmids pCAX FLAG APP and pRK5-EGFP-Tau P301L (1 μg each) and 1 μL of TurboFect transfection reagent were mixed for 20 min at room temperature, added to the cells, and the suspensions were incubated for 24 h at 37 °C in a humidified atmosphere containing 5% CO2.
as §2

O=C(NO)c1ccc(CNc2cccc3cccnc23)cc1 [MPT0G211, N-hydroxy-4-((quinolin-8-ylamino)methyl)benzamide]
cytotoxicity (MTT cell viability) (Neuro-2a cells [1]): did not result in any significant cytotoxicity
coimmunoprecipitation of ubiquitin with p-tau (Ser396) (SH-SY5Y cells [2]; 0.1 μM): clearly increased
HDAC6/Hsp90 binding (SH-SY5Y cells [2]; 0.1 μM, IP): downregulation
acetylation of Hsp90 (SH-SY5Y cells [2]; 0.1 μM, IP): clearly enhanced
level of polyubiquitinated proteins (SH-SY5Y cells [2]; 0.01–1 μM): significantly accumulated
memory impairment (Morris water maze escape latency) (3×Tg-AD mice): significantly ameliorated
time spent in finding the closed arm (elevated plus maze) and platform (Morris water maze) (Elevated plus maze): reduced the time spent by animals in finding the platform and closed arm
GSK3β activity and Aβ1–40-induced tau phosphorylation (SH-SY5Y cells [3]): diminished
cytotoxicity (MTT cell viability) (SH-SY5Y cells [4]): did not result in any significant cytotoxicity
phosphorylation of tau Ser396 (Neuro-2a cells [5]; Neuro-2a transfected hAPP 695 + hTau P301L): significantly inhibited; also recorded: significantly attenuated
CDK5, p25, or p35 expression (Neuro-2a cells [5]; Neuro-2a transfected): no marked changes
phospho-GSK3β on Ser9 (Neuro-2a cells [5]; Neuro-2a transfected): significant phospho-GSK3β increases
phospho-GSK3β on Ser216 (Neuro-2a cells [5]; Neuro-2a transfected): a decrease
phosphorylation of tau Ser404 (Neuro-2a cells [5]; Neuro-2a transfected): significantly attenuated
